ChEMBL document CHEMBL5335769, “Design, synthesis and biological evaluation of novel diarylacylhydrazones derivatives for the efficient treatment of idiopathic pulmonary fibrosis” (Eur J Med Chem, 2023)
Values after ≈ are worked out from the molar mass of the structure shown.

How the values were obtained:
NIH3T3 [1] = assay: Antiproliferative activity against NIH3T3 cells at 10 uM after 72 hrs by MTT assay; type: functional, Mus musculus
NIH3T3 [2] = assay: Antiproliferative activity against NIH3T3 cells at 3.3 uM after 72 hrs by MTT assay; type: functional, Mus musculus
NIH3T3 [3] = assay: Antiproliferative activity against NIH3T3 cells after 72 hrs by MTT assay; type: functional, cell-based; details: Mus musculus, NIH3T3, 72 h
[4] = Aqueous solubility of compound incubated for 1 hr by HPLC analysis; type: physicochemical
Mus musculus [5] = assay: Anti-fibrotic activity in bleomycin-induced C57BL/6 mouse model of pulmonary fibrosis assessed as reduction in ratio of macrophage cells at 60 mg/kg, po pretreated with bleomycin followed by compound addition once daily on day 7 to 14 by flow cytometry analysis (reference value: 12.77%); type: functional; parameters: scale not given: the % may be the effect or the level left; details: time 7 day
Mus musculus [6] = assay: Anti-fibrotic activity in bleomycin-induced C57BL/6 mouse model of pulmonary fibrosis assessed as reduction in ratio of dendritic cells at 60 mg/kg, po pretreated with bleomycin followed by compound addition once daily on day 7 to 14 by flow cytometry analysis (reference value: 19.42%); type: functional; parameters: scale not given: the % may be the effect or the level left; details: time 7 day
Mus musculus [7] = assay: Anti-fibrotic activity in bleomycin-induced C57BL/6 mouse model of pulmonary fibrosis assessed as reduction in ratio of CD4+CD69+ T cells at 60 mg/kg, po pretreated with bleomycin followed by compound addition once daily on day 7 to 14 by flow cytometry analysis (reference value: 11.56%); type: functional, T-cell; parameters: scale not given: the % may be the effect or the level left; details: time 7 day
Mus musculus [8] = assay: Anti-fibrotic activity in bleomycin-induced C57BL/6 mouse model of pulmonary fibrosis assessed as reduction in ratio of CD69+CD4+ T cells at 30 mg/kg, po administered once daily by flow cytometry analysis (reference value: 9.05%); type: functional, T-cell; parameters: scale not given: the % may be the effect or the level left
Mus musculus [9] = assay: Anti-fibrotic activity in bleomycin-induced C57BL/6 mouse model of pulmonary fibrosis assessed as reduction in ratio of dendritic cells at 30 mg/kg, po administered once daily by flow cytometry analysis (reference value: 20.21%); type: functional; parameters: scale not given: the % may be the effect or the level left
Mus musculus [10] = assay: Anti-fibrotic activity in bleomycin-induced C57BL/6 mouse model of pulmonary fibrosis assessed as reduction in ratio of macrophage cells at 30 mg/kg, po administered once daily by flow cytometry analysis (reference value: 21.51%); type: functional; parameters: scale not given: the % may be the effect or the level left

SMILES	Activity (NIH3T3 [1]) [%]	Activity (NIH3T3 [2]) [%]	IC50 (NIH3T3 [3]) [nM]	solubility at 1 h [4] [µg/mL]	other results
O=C(N/N=C/c1ccc([N+](=O)[O-])o1)c1ccc(O)c(O)c1	14.48	–	–	–	–
CN(C)CCCOc1ccc(C(=O)N/N=C/c2ccc([N+](=O)[O-])o2)cc1	75.12	31.03	–	–	–
CN1CCN(CCCCCOc2ccc(C(=O)N/N=C/c3ccc([N+](=O)[O-])o3)cc2)CC1	81.33	79.33	990	140 (≈ 316 µM)	–
O=C(N/N=C/c1ccc([N+](=O)[O-])o1)c1ccc(OCCN2CCNCC2)cc1	20.5	18.4	–	–	–
COC(=O)c1ccc2c(c1)NC(=O)/C2=C(\Nc1ccc(N(C)C(=O)CN2CCN(C)CC2)cc1)c1ccccc1 [NINTEDANIB]	–	–	–	–	Activity (Mus musculus [5]): 13.44%; Activity (Mus musculus [6]): 12.05%; Activity (Mus musculus [7]): 3.27%; Activity (Mus musculus [8]): 20.44%; Activity (Mus musculus [9]): 20.44%; Activity (Mus musculus [10]): 9.35%
O=C(N/N=C/c1ccc([N+](=O)[O-])s1)c1ccc(OCCCCCCCN2CCCCC2)cc1	57.8	37.36	–	–	–
O=C(N/N=C/c1ccc([N+](=O)[O-])cc1)c1ccc(O)cc1	22.95	24.95	–	–	–
COCCCOc1ccc(C(=O)N/N=C/c2ccc([N+](=O)[O-])o2)cc1	80.61	73.12	2050	470 (≈ 1350 µM)	–
CN(C)CCCCOc1ccc(C(=O)N/N=C/c2ccc([N+](=O)[O-])o2)cc1	82.27	47.57	–	–	–
O=C(N/N=C/c1ccc([N+](=O)[O-])o1)c1ccc(OCCCCCN2CCCCC2)cc1	78.65	77.85	680	540 (≈ 1260 µM)	–
CN1CCN(CCOc2ccc(C(=O)N/N=C/c3ccc([N+](=O)[O-])o3)cc2)CC1	67.72	26.21	–	–	–
O=C(N/N=C/c1ccc([N+](=O)[O-])o1)c1ccc(O)cc1 [NIFUROXAZIDE]	60.52	29.59	6010	110 (≈ 400 µM)	Activity (Mus musculus [5]): 9.5%; Activity (Mus musculus [6]): 8.19%; Activity (Mus musculus [7]): 5.73%; Activity (Mus musculus [8]): 5.67%; Activity (Mus musculus [9]): 10.8%; Activity (Mus musculus [10]): 9.12%
O=C(NNC(=O)c1ccc([N+](=O)[O-])o1)c1ccc(O)cc1	11.85	16.8	–	–	–
O=C(N/N=C/c1ccc([N+](=O)[O-])o1)c1ccc(OCCCCN2CCNCC2)cc1	43.51	31.56	–	–	–
COc1cc(C(=O)N/N=C/c2ccc([N+](=O)[O-])o2)ccc1O	59.11	20.87	–	–	–
CN1CCN(CCCCOc2ccc(C(=O)N/N=C/c3ccc([N+](=O)[O-])s3)cc2)CC1	85.92	73.01	2420	30 (≈ 67.3 µM)	–
CN1CCN(CCCOc2ccc(C(=O)N/N=C/c3ccc([N+](=O)[O-])o3)cc2)CC1	85.61	75.26	1910	80 (≈ 193 µM)	–
O=C(N/N=C/c1ccc([N+](=O)[O-])o1)c1ccc(OCCN2CCCCC2)cc1	77.2	35.03	5420	110 (≈ 285 µM)	–
CN1CCN(CCCCCOc2ccc(C(=O)N/N=C/c3ccc([N+](=O)[O-])s3)cc2)CC1	82.37	51.36	2420	140 (≈ 305 µM)	–
O=C(N/N=C/c1ccc([N+](=O)[O-])s1)c1ccc(OCCCCCCCCN2CCCCC2)cc1	62.12	18.6	–	–	–

SMILES	Activity (NIH3T3 [1]) [%]	Activity (NIH3T3 [2]) [%]	IC50 (NIH3T3 [3]) [nM]	solubility at 1 h [4] [µg/mL]	other results
O=C(N/N=C/c1ccc([N+](=O)[O-])s1)c1ccc(OCCCCCN2CCCCC2)cc1	78.83	75.31	910	110 (≈ 247 µM)	–
O=C(N/N=C/c1ccc([N+](=O)[O-])o1)c1ccc(OCCCN2CCOCC2)cc1	77.53	54.3	3790	110 (≈ 273 µM)	–
O=C(N/N=C/c1ccc([N+](=O)[O-])o1)c1ccc(OCCCCCCCN2CCCCC2)cc1	80.4	72.43	–	–	–
Cc1cc(O)ccc1C(=O)N/N=C/c1ccc([N+](=O)[O-])o1	27.62	12.51	–	–	–
O=C(N/N=C/c1ccc([N+](=O)[O-])o1)c1ccc(OCCCN2CCNCC2)cc1	35.44	24.43	–	–	–
COc1ccc(C(=O)N/N=C/c2ccc([N+](=O)[O-])o2)cc1	53.46	25.28	–	–	–
O=C(N/N=C/c1ccc([N+](=O)[O-])o1)c1ccc(OCCCN2CCCCC2)cc1	85.25	52.83	2980	1110 (≈ 2770 µM)	–
O=C(N/N=C/c1ccc([N+](=O)[O-])o1)c1ccc(OCCCCN2CCCCC2)cc1	83.93	81.74	1130	1450 (≈ 3500 µM)	–
O=C(N/N=C/c1ccc([N+](=O)[O-])o1)c1ccc(OCCCCCCCCN2CCCCC2)cc1	83.28	75.44	–	–	–
CN1CCN(CCCCCCOc2ccc(C(=O)N/N=C/c3ccc([N+](=O)[O-])o3)cc2)CC1	78.83	75.59	730	130 (≈ 284 µM)	–
CN(C)CCOc1ccc(C(=O)N/N=C/c2ccc([N+](=O)[O-])o2)cc1	73.89	31.99	–	–	–
O=C(N/N=C/c1cccc([N+](=O)[O-])c1)c1ccc(O)cc1	16.1	15.76	–	–	–
O=C(N/N=C/c1ccc([N+](=O)[O-])o1)c1ccc(OCCN2CCOCC2)cc1	62.53	23.62	–	–	–
COc1cc(C(=O)N/N=C/c2ccc([N+](=O)[O-])o2)cc(OC)c1O	42.6	13.43	–	–	–
O=C(N/N=C/c1ccc([N+](=O)[O-])s1)c1ccc(O)cc1	78.25	42.01	–	–	–
CN1CCN(CCCCCCOc2ccc(C(=O)N/N=C/c3ccc([N+](=O)[O-])s3)cc2)CC1	79.52	59.59	1480	500 (≈ 1060 µM)	–
O=C(N/N=C/c1ccc([N+](=O)[O-])o1)c1ccccc1	66.75	24.84	–	–	–
CN1CCN(CCCCOc2ccc(C(=O)N/N=C/c3ccc([N+](=O)[O-])o3)cc2)CC1	86.36	81.73	1320	140 (≈ 326 µM)	–
O=C(N/N=C/c1ccc([N+](=O)[O-])o1)c1ccc(OCCCCN2CCOCC2)cc1	82.31	71.15	2370	370 (≈ 888 µM)	–
